Data as given in patent US20100075993A1, “SMALL MOLECULE INHIBITORS AGAINST WEST NILE VIRUS REPLICATION” (DREXEL UNIVERSITY, priority 2005, published 2010).

Columns and labels:
WNV replicon = WNV replicon luciferase assay in BHK 26.5 cells (HTS, re-test, IC50); format: cell-based, West Nile virus; conditions: for IC50: West Nile virus, 24 h; for Fold decrease (HTS) / Fold decrease (Re-test): luciferase activity; for Fold decrease (HTS): 10 μM compound, 24 hours, BHK 26.5 cells; for Fold decrease (Re-test): re-checked at a single 10 μM concentration
Procedure: Ten micromolar concentrations of a selected compound were incubated with BHK 26.5 cells expressing luciferase whose activity is dependent upon WNV replicon replication (FIG. 1A). Primary “hits” were defined by the ability to reduce the amount of luciferase enzyme activity by more than 50%, compared to controls.
To quantify and rank the activity of the 23 remaining compound “hits”, a serial dilution of each compound was incubated with WNV replicon cells to determine the concentration that inhibits 50% of the luciferase readout (IC50s). […] A number of compounds had significant effect only at the highest, 10 μM concentration. However, several compounds had IC50s between 2 and 5 (Table 3), which is very reasonable for primary HTS hits from a compound library. Only a few compounds could cause 90% inhibition in the replicon cells at the concentrations tested.
(§1) Replicon-harboring cells were plated 96-well plates at 10,000 cells per well in MEM plus 3% FBS. 24 hours after plating, compounds were added to the wells by a Robotic liquid handler (Biomek NX) to a final concentration of 10 μM and 1% DMSO. For each 96 well plate, A1 to A8 were left open, H1 to H4 contained 1% DMSO, H5-H8 contained Mycophenolic acid (Sigma-Aldrich, St. Louis, Mo.), which was included as positive controls. After 24 hours of treatment, the media were removed and the luciferase activity expressed in the replicon cells was quantified. When cyto-toxicity was measured, duplicate 96 well plates were plated with BHK 26.5 replicon cells. One plate was used for luciferase assay and one plate was used for measuring toxicity using MTT assay.
Luciferase assay was performed by using the STEADY GLO reagent (Promega Corp. Madison, Wis.) according to the manufacturer's recommendation with slight modifications. Briefly, the culture media from the 96 wells were removed by dumping on paper towels.
100 μl of a 1:1 mixture of luciferase regent and culture media were added to the plate. After 5-minute incubation, the luminescence was read on a TOPCOUNT (PerkinElmer, Wellesley, Mass.).

BHK 26.5 replicon cells = assay: MTT toxicity assay on BHK 26.5 replicon cells; format: cell-based; conditions: MTT assay
Text: The HTS strategy follows the flowchart outlined in FIG. 2. 35,000 compounds were screened from a chemical library described below, using a cutoff of 50% reduction in luminescence readout as the criteria for further study. Upon completion of the screen, approximately 1100 compounds were selected, making the hit rate of 3%. This is considerably higher than expected, implying many false positive and/or cytotoxic compounds. Nevertheless, the compounds were picked out from the “daughter” plates and re-checked at a single 10 μM concentration. In addition, a duplicate 96 well plates were also plated and the toxicity of the compounds was determined in an MTT assay. Upon completion of these assays, most compounds were disqualified as either false positives or being toxicity to cells. As a result, only a small number of compounds were further analyzed directly from the “mother” plate stock. After IC50 determination and secondary assay to rule out luciferase inhibitors, 23 “hits” were identified.
as §1
Compound toxicity was determined by MTT assay. For the MTT assay, the cell medium was removed and the monolayers were incubated with 100 μl/well of 0.5 mg/ml MTT for 6 h at 37° C. The MTT solution was then aspirated and 100 μl/well of the 10% SDS (in 0.01N HCl) was added, followed by spectrophotometric quantitation (570 nm) of the insoluble MIT reaction product.

WNV = WNV yield reduction assay (live virus) on BHK cells; format: cell-based, West Nile virus; conditions: live WNV
Procedure: The antiviral assay for the 309-F6 compounds was conducted on BHK cells. The virus produced in the presence of 1% DMSO or various concentrations of compounds was tittered on Vero cells. The amount of virus relative to the 1% DMSO control was plotted on the y-axis; the concentration of the compound 309F6 is shown in μM on the x-axis. Data from two independently treated wells (Test 1 and Test 2) are shown.
To measure activity against live WNV, BHK cells were plated in 96-well plates at a concentration of 12,000 cells/well. One day later the cells were infected with WNV for 1 h at an MOI of 0.05. The cells were then washed once and re-fed with fresh DMEM containing dilutions of the test compound. Plates were then incubated at 37° C. for 48 h, the supernatant collected and the WNV produced titered. For virus titration, Vero cells were plated in 96-well plates at 8000 cells/well and incubated overnight. The Vero cell monolayer were then infected for 1 h with various dilutions of the WNV supernatant, overlaid with media containing 0.6% tragacanth (ICN, CA) and incubated at 37° C. for 48 h. The culture media was then aspirated; the plate was rinsed, air-dried, and fixed with 50 μl/well acetone/methanol (50:50). Viral foci were detected for enumeration by immunostaining as described previously (15).

| Structure (SMILES) | IC50 (WNV replicon) [µM] | Fold decrease (HTS) (WNV replicon) [Fold] | Fold decrease (Re-test) (WNV replicon) [Fold] | Toxicity (uM)* (BHK 26.5 replicon cells) [µM] | activity in the WNV infection assay (WNV) |
| --- | --- | --- | --- | --- | --- |
| Cc1ccc(-n2nc3c(c2NC(=O)C2CC2)CSC3)c(C)c1 [Compound 20-E7, Cyclopropanecarboxylic acid [2-(2,4-dimethyl-phenyl)-2,6-dihydro-4H-thieno[3,4-c]pyrazol-3-yl]-amide] | 10 | 2.3 | 2.4 | >10 | – |
| CC1CC(C)CN(S(=O)(=O)c2ccc(C3CCCCC3)cc2)C1 (stereo not drawn) [Compound 182-C2, 1-(4-Cyclohexyl-benzenesulfonyl)-3,5-dimethyl-piperidine] | – | 5 | 1.4 | >10 | – |
| COc1ccc(-n2nc3c(c2NC(=O)c2ccc(OC(C)C)cc2)CSC3)cc1 [Compound 253-F8, 4-Isopropoxy-N-[2-(4-methoxy-phenyl)-2,6-dihydro-4H-thieno[3,4-c]pyrazol-3-yl]-benzamide] | 10 | 2.5 | 2 | >30 | – |
| O=C(Nc1c2c(nn1-c1ccc(F)cc1)CSC2)c1ccc2c(c1)OCO2 [Compound 253-F11, Benzo[1,3]dioxole-5-carboxylic acid [2-(4-fluoro-phenyl)-2,6-dihydro-4H-thieno[3,4-c]pyrazol-3-yl]-amide] | 10 | 3 | 2 | >30 | – |
| NC(=O)CCS(=O)(=O)c1ccc(Cl)cc1 [Compound 2-H7, 3-(4-Chloro-benzenesulfonyl)-propionamide] | 2.5 | 4.5 | 2.5 | >20 | – |
| COc1cc(OC)cc(C(=O)Nc2c3c(nn2-c2cccc(Cl)c2)CSC3)c1 [Compound 253-B10, N-[2-(3-Chloro-phenyl)-2,6-dihydro-4H-thieno[3,4-c]pyrazol-3-yl]-3,5-dimethoxy-benzamide] | 3 | 2 | 2 | >30 | – |
| Cc1ccc(S(=O)(=O)N2Cc3ccccc3CC2C(=O)Nc2ccc(Cl)cc2)cc1 (stereo not drawn) [Compound 42-E5, 2-(Toluene-4-sulfonyl)-1,2,3,4-tetrahydro-isoquinoline-3-carboxylic acid(4-chloro-phenyl)-amide] | 7.5 | 7 | 1.7 | >10 | – |
| CCOC(=O)c1cnc2ccc(OCC)cc2c1NCc1ccccc1 [Compound 63-C10, 4-Benzylamino-6-ethoxy-quinoline-3-carboxylic acid ethyl ester] | 5 | 3.5 | – | >20 | – |
| CCC(C)NC(=O)c1cnn2c(O)c(Cc3ccccc3Cl)c(C)nc12 (stereo not drawn) [Compound 275-D9, 6-(2-Chloro-benzyl)-7-hydroxy-5-methyl-pyrazolo[1,5-a]pyrimidine-3-carboxylic acid sec-butylamide] | 7.5 | 10 | 2.9 | >10 | no detectable activity |
| O=C1Nc2ccc(S(=O)(=O)Nc3cc(Cl)ccc3Cl)c3cccc1c23 [Compound 24-C10, 2-Oxo-1,2-dihydro-benzo[cd]indole-6-sulfonic acid (2,5-dichloro-phenyl)-amide] | 10 | 2.5 | 1.8 | >10 | – |
| Cc1cccc(-n2nc3c(c2NC(=O)c2ccc(S(=O)(=O)N4CCCCC4)cc2)CSC3)c1 [Compound 18-H5, 4-(Piperidine-1-sulfonyl)-N-(2-m-tolyl-2,6-dihydro-4H-thieno[3,4-c]pyrazol-3-yl)-benzamide] | 7.5 | 2 | 2 | >30 | – |
| COc1ccc(CCC(=O)Nc2ccc(C(=N)NO)cc2)cc1 [Compound 331-E11, N-[4-(N-Hydroxycarbamimidoyl)-phenyl]-3-(4-methoxy-phenyl)-propionamide] | 5 | 3 | 1.5 | >30 | – |
| CCOc1ccc(C(=O)Nc2c3c(nn2-c2ccc(OC)cc2)CSC3)cc1OCC [Compound 253-H8, 3,4-Diethoxy-N-[2-(4-methoxy-phenyl)-2,6-dihydro-4H-thieno[3,4-c]pyrazol-3-yl]-benzamide] | 10 | 2 | 1.5 | >30 | – |
| COc1ccc(-n2nc3c(c2NC(=O)c2ccc4c(c2)OCO4)CSC3)cc1 [Compound 253-G8, Benzo[1,3]dioxole-5-carboxylic acid [2-(4-methoxy-phenyl)-2,6-dihydro-4H-thieno[3,4-c]pyrazol-3-yl]-amide] | 2.5 | 2 | 2 | >30 | – |
| CCc1cccc(NC(=O)C(Cc2ccccc2)NS(=O)(=O)c2cccs2)c1 (stereo not drawn) [Compound 207-E5, N-(3-Ethyl-phenyl)-3-phenyl-2-(thiophene-2-sulfonylamino)-propionamide] | 10 | 5 | 2 | >10 | – |
| Cc1cc(C)c2nc(NC3=NC(c4ccccc4)CC(=O)N3)nc(C)c2c1 (stereo not drawn) [Compound 50-A8, 6-Phenyl-2-(4,6,8-trimethyl-quinazolin-2-ylamino)-5,6-dihydro-3H-pyrimidin-4-one] | 5 | 4.5 | 2.3 | >10 | – |
